Patent US12544372B2, “Methods of treating rheumatoid arthritis, chronic spontaneous urticaria, and systemic lupus erythematosis using an inhibitor of Bruton's tyrosine kinase” (Genentech, Inc., priority 2019, dated 2026)
Marks after values point to notes of the source that are not given here.

What was measured:
Type in all cases: in vivo, human
IL-6 = assay: RA study biomarker: IL-6 (immunoassay)
Description: (§1) Biomarkers were evaluated in serum or plasma samples at baseline and weeks 1, 4, and 12 in patients with available samples (cohort 1: n=438; cohort 2: n=86). The biomarkers evaluated in this assessment were chemokine [C-C motif] ligand 4 (CCL4), IL-6, and TNF-like cytokine 1A (TL1A). Total IgM, IgG, rheumatoid factor IgM autoantibody (RF), CCL4, TL1A, IL-6, and anti-CCP autoantibody (ACPA IgG) levels were analyzed with immunoassays. CD19^+ B cells and CD3^+ T cells were measured by flow cytometry. The proportion of patients achieving an ACR50 response at week 12 and the change in DAS28 score by week 12 were assessed relative to seropositivity (RF and/or ACPA positive at baseline) or baseline levels of RF in both cohorts. To select which biomarkers to evaluate in this trial, BTK-dependent myeloid biomarkers were identified using peripheral blood CD14^+ monocytes stimulated with immune-complexes in the presence or absence of a BTK inhibitor. In brief, the expression levels of genes in human monocytes were assayed under conditions of no stimulation; with human serum albumin immune complex stimulation; with stimulation and a low concentration of a BTK inhibitor with similar characteristics to fenebrutinib; or with stimulation and a high concentration of the BTK inhibitor. […] Genes annotated with cytokine activity were selected. The color bar represents normalized gene expression.

CCL4 = assay: RA study biomarker: CCL4 (immunoassay)
Description: as §1, with “Biomarkers were evaluated in serum or plasma samples at baseline and weeks 1, 4, and 12 in patients with available samples (cohort 1: n=438; cohort 2: n=86).” left out

C4 = assay: SLE study biomarker: C4
Description: The following biomarkers were explored according to the biomarker objectives provided above in the Study Objectives. In Table 13, biomarkers are measured at baseline and subsequent timepoints during and after treatment. One set of biomarkers evaluated is the plasmablast signature. Plasmablasts are rapidly dividing, short-lived antibody secreting cells. While they represent a small proportion of B cells in the blood, they are responsible for a majority of antibody transcripts found in whole blood mRNA. The plasmablast signature comprises the biomarkers IgJ, Mzbl, and Txndc5. The gene expression of IgJ, Mzbl, and Txndc5 may be measured, for example, a polypeptide expression by evaluating the level of mRNA for said gene in a patient's blood relative to a reference level.

Anti-dsDNA = assay: SLE study biomarker: anti-dsDNA autoantibodies; conditions: patients positive at baseline (>30 IU/mL)
Total IgG [1] = assay: RA study biomarker: total IgG
Description: as §1, with “Biomarkers were evaluated in serum or plasma samples at baseline and weeks 1, 4, and 12 in patients with available samples (cohort 1: n=438; cohort 2: n=86).” left out

Total IgG [2] = assay: SLE study biomarker: total IgG
[3] = cohort 2, 200 mg twice daily, by week 12

C[C@H]1CN(C2COC2)CCN1c1ccc(Nc2cc(-c3ccnc(N4CCn5c(cc6c5CC(C)(C)C6)C4=O)c3CO)cn(C)c2=O)nc1 [fenebrutinib, (S)-2-(3′-(hydroxymethyl)-1-methyl-5-((5-(2-methyl-4-(oxetan-3-yl)piperazin-1-yl)pyridin-2-yl)amino)-6-oxo-1,6-dihydro-[3,4′-bipyridin]-2′-yl)-7,7-dimethyl-2,3,4,6,7,8-hexahydro-1H-cyclopenta[4,5]pyrrolo[1,2-a]pyrazin-1-one]
IL-6 reduction relative to placebo (IL-6; Cohort 1, by week 12): not observed | IL-6 levels relative to placebo (IL-6; [3]): −50% | CCL4 Reduction as % of Baseline (CCL4; Cohort 1, 50 mg QD, Week 2): 78%* | CCL4 Reduction as % of Baseline (CCL4; Cohort 1, 50 mg QD, Week 4): 84%* | CCL4 Reduction as % of Baseline (CCL4; Cohort 1, 50 mg QD, Week 12): 78%* | CCL4 Reduction as % of Baseline (CCL4; Cohort 1, 150 mg QD, Week 2): 73%* | CCL4 Reduction as % of Baseline (CCL4; Cohort 1, 150 mg QD, Week 4): 79%* | CCL4 Reduction as % of Baseline (CCL4; Cohort 1, 150 mg QD, Week 12): 86%* | CCL4 Reduction as % of Baseline (CCL4; Cohort 1, 200 mg BID, Week 2): 71%* | CCL4 Reduction as % of Baseline (CCL4; Cohort 1, 200 mg BID, Week 4): 74%* | CCL4 Reduction as % of Baseline (CCL4; Cohort 1, 200 mg BID, Week 12): 76%* | CCL4 reduction relative to placebo (CCL4; cohort 1, 200 mg twice daily, largest reduction): −28% | CCL4 levels compared to placebo (CCL4; cohorts 1 and 2, all doses, by week 1): reduced CCL4 levels | C4, Median Change from Baseline at Week 48 (C4; 150 mg QD): +0.02* g/L | C4, Median Change from Baseline at Week 48 (C4; 200 mg BID): +0.01* g/L | Anti-dsDNA, Median Change from Baseline at Week 48 (Anti-dsDNA; 150 mg QD): −38.3* IU/ml | Anti-dsDNA, Median Change from Baseline at Week 48 (Anti-dsDNA; 200 mg BID): −75.7* IU/ml | Total IgG Reduction as % of Baseline (Total IgG [1]; Cohort 1, 150 mg QD, Week 4): 97%* | Total IgG Reduction as % of Baseline (Total IgG [1]; Cohort 1, 150 mg QD, Week 8): 94%* | Total IgG Reduction as % of Baseline (Total IgG [1]; Cohort 1, 150 mg QD, Week 12): 95%* | Total IgG Reduction as % of Baseline (Total IgG [1]; Cohort 1, 200 mg BID, Week 4): 95%* | Total IgG Reduction as % of Baseline (Total IgG [1]; Cohort 1, 200 mg BID, Week 8): 92%* | Total IgG Reduction as % of Baseline (Total IgG [1]; Cohort 1, 200 mg BID, Week 12): 93%* | IgG absolute reduction relative to placebo (Total IgG [1]; cohort 1, 200 mg twice daily, by week 12): -115 mg/dL | IgG reduction relative to placebo (Total IgG [1]; [3]): -101 mg/dL | Total IgG, Median Change from Baseline at Week 48 (Total IgG [2]; 150 mg QD): −1.25* g/L | Total IgG, Median Change from Baseline at Week 48 (Total IgG [2]; 200 mg BID): −1.56* g/L
